According to PMC12246082, “Structural basis for catalysis by human lipoyl synthase” (Nature Communications, 2025):
Blank lines part the entries; values can stand above or below the molecule they belong to. Ends that are not written are not given here. * marks the point of attachment. Octanoyl = CCCCCCCC(=O)*

Assays:
[1] = target: T1, human LIAS (lipoyl synthase) (Homo sapiens, UniProt O43766); assay: X-ray crystal structure, […] Å; type: binding; details: co-crystallised with 5'-dAH and OCT-8mer, anaerobic; bidentate to unique Fe of radical SAM [Fe4S4] cluster
T1 construct: residues 65-372, N-terminal His6-tag with 10-aa linker kept (pET-28a), E. coli BL21(DE3) with pDB1282; two [Fe4S4] clusters; monomeric in asymmetric unit of 8TRW
T1 sequence (O43766 65-372): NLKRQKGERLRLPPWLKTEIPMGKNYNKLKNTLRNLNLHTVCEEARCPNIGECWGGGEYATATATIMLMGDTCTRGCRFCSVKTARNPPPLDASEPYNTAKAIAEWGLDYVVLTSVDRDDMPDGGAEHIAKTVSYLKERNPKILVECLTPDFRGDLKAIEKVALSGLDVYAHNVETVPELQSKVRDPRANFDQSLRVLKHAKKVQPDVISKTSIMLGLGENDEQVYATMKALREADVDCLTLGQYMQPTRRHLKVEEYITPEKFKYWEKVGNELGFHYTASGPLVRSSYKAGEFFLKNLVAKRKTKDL

[2] = target: T2, truncated human lipoyl synthase (LIAS isoform 1, aa 65–372) (human); assay: crystal structure; LIAS (8 mg/ml) co-crystallised with 2.5 mM L-Met, 1 mM 5’-dAH and a 1.3x molar ratio of OCT-8mer; anaerobic, hanging drop, 0.1 M HEPES pH 7.5, 0.2 M Na2SO4, 30% PEG 3350, 3% trehalose; details: both partners purified
T2 construct: lipoyl synthase (LIAS), human, isoform 1, residues 65-372; Holds two [Fe4S4] clusters (RS and auxiliary); in the complex with Hpro the auxiliary cluster is [Fe3S3:1 mercaptooctanoyllysyl]; also called human LIAS; trnLIAS; source: E. coli BL21 (DE3) co-transformed with pDB1282, purified anaerobically (Ni-NTA, size-exclusion S-200); not shown: His6 (separated from the protein by a ten aa linker), …
T2 chain: T1 sequence (O43766 65-372)

Molecule: CSCC[C@H](N)C(=O)O [Met, methionine]
X-ray crystal structure, 1.58 Å [1]: The oxygen and nitrogen atoms of Met are coordinated to the unique iron

binding result [2]: binds
B1: octanoyl-containing eight amino acid peptide substrate mimic, Glu-Ser-Val-(N6-octanoyl)Lys-Ala-Ala-Ser-Asp (peptide)
peptide: ESVK(Octanoyl)AASD
notes: printed in three-letter code; human Hpro 104-111 is ESVKAASE; also called OCT-8mer; OCT-8-mer; source: synthetic peptide, custom-synthesized by Proimmune (Oxford, UK)
